For 20 molecules, IC50 and Ki results are on record in patent US20250188030A1, “Biphenyl and Phenylpyridine Compounds” (Pfizer Inc., priority 2023, published 2025).

The test system of one test is H3K9AC (HT1080 cells). Nature of the test: H3K9AC Sandwich ELISA Assay in HT1080 cells (KAT2A primary cell-based screening assay). On the set-up: species or system Human. As to the method:
Human fibrosarcoma cell line HT1080 was obtained from American Type Culture Collection (ATCC), Manassas, VA USA, Cat. HT-1080 (ATCC® CCL-121™). Cells were cultured in MEM (Thermo Fisher Scientific/Gibco Life Technologies Cat. #11-095-080) plus 10% (v/v) FBS (Thermo Fisher Scientific/Gibco Life Technologies Cat. #26140-079) and 1% Penicillin-Streptomycin (Thermo Fisher Scientific/Gibco Life Technologies Cat. #15070063) at 37° C. in 5% CO2.
HT1080 cells were trypsinized, cell viability count performed, and cells suspended in complete media at 100,000 cells/ml. Cells were seeded (100 μl/well) into Greiner Bio-One CELLSTAR 96-well polystyrene flat bottom cell culture microplate (Thermo Fisher Scientific Cat. #07-000-162) at a density of 10,000 cells/well. Cells were incubated for 16 hours at 37° C. at 5% CO2. Compound dilution plates were prepared in 96-well, clear U-bottom, polypropylene plates (Corning 3365) in 100% DMSO at 10 mM stock concentration in duplicate, using 10-point serial dilution (1:3). Compounds were diluted to 1:200 in growth medium and 25 μl from intermediate compound plates were added to each well of the cell plates using a Beckman FX liquid handling system such that the highest compound concentration tested was 10 μM final, with a 0.1% final DMSO concentration in the total volume of 125 μl. Plates were incubated for 24 hours at 37° C. and 5% CO2. Plates were centrifuged at 2500 rpm for 5 minutes and medium was removed. 100 μL 0.4N HCL (Thermo Fisher Scientific Cat #SA56-1) was added to each well and plates were shaken for 60 minutes at 4C to lyse cells. 38ul 0.4N Sodium phosphase dibasic pH12.5 (Thermo Fisher Scientific Cat #S375-212) containing 2 mM Sodium Butyrate (Millipore TR1008G) and 3 mM Phenylmethanesulfonyl-fluoride (Sigma 93482) was added to each well to neutralize lysates.
Cell lysate plates were mixed for 5 minutes at room temperature on shaker and immediately frozen at −80C overnight. Cell lysates were thawed and 50 μL/well was transferred to ELISA plates (Total Histone H3 mouse (Cell Signaling Technology Cat #14269) mAb-coated Corning 1×8 strip-well, white, 96-well plates (Corning 2485)). After 2 hours room temperature incubation, plates were washed six times with PBS/0.05% Tween Wash Buffer using a BioTek plate washer. 50 μL of Histone H3K9AC rabbit detection mAb (Cell Signaling Technology Cat #9649S) diluted 1:1000 in blocking buffer (Thermo Fisher Scientific Cat #37542) was added to each well and incubated for 2 hours at room temperature. After washing, 50 μL anti-rabbit IgG, HRP-Linked antibody (Cell Signaling Technology Cat #7074) diluted 1:1000 in blocking buffer was added to each well and incubated for 60 minutes at room temperature. Following incubation, plates were washed as described above. 50 μL of luminescent GLO substrate reagent (R&D System Cat #DY993) was added to each well and incubated for 10 minutes at room temperature. Plates were read on the PHERAstar plate reader using the 96-well with Luminescent reading mode. IC50 values were calculated using a four-parameter fit with GraphPad Prism version 9.5.1 or in-house modified IDBS ActivityBase data analyzing package.
A general note: ELISA stands for enzyme-linked immunosorbent assay.

Another test has as its target KAT2A (Homo sapiens (Human), UniProt Q92830). Briefly: KAT2A acetyltransferase biochemical assay (RapidFire mass spectrometry, AcCoA to CoA).
Where [1] appears, read: read-out: KAT2A Ki at 1 μM AcCoA, 5 μM H3 1-21 peptide, 0.5 nM KAT2A, 90-minute reaction.
Where [2] appears, read: Homo sapiens, HT-1080, H3K9AC sandwich ELISA.
Where [3] appears, read: KAT2A Ki at 1 μM AcCoA, 5 μM H3 1-21 peptide, 0.5 nM KAT2A, 90-minute reaction.

Read-outs that look alike come from different tables or passages of the source. A value given as a limit tells only on which side of the number the result lay.

Sequence of KAT2A (Q92830 whole entry): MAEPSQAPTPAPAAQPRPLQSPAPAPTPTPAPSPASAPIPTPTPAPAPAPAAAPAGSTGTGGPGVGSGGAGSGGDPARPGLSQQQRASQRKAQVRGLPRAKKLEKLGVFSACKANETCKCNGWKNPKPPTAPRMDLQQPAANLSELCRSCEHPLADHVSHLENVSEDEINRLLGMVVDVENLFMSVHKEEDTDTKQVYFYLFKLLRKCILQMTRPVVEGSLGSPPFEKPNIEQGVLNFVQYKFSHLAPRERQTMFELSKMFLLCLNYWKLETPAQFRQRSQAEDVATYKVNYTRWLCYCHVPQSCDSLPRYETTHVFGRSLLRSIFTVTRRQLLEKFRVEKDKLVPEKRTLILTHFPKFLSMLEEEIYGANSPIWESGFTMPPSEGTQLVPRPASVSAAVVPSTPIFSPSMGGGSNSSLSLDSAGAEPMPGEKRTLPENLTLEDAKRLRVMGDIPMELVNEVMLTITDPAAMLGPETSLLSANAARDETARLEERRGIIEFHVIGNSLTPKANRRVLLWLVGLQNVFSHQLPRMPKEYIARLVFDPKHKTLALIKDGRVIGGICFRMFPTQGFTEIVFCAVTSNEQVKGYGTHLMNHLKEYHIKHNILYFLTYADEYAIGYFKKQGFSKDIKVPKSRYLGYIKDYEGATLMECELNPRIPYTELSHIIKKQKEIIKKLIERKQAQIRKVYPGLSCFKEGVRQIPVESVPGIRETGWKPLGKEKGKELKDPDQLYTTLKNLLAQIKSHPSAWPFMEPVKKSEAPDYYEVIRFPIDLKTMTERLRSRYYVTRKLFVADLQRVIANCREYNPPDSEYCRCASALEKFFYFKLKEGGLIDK

The IC50 is the concentration needed to halve the response being measured. A higher IC50 goes with a need for much substance. `CN1CC(C)(C)C[C@H]1C(=O)N[C@@H]1CC[C@@H](Oc2cccc(CC(=O)O)c2-c2ccccc2C2CCC2)C1` (atropisomer, axis not shown) [Example H7] had an IC50 in the test on H3K9AC (HT1080 cells) (H3K9AC sandwich ELISA) of 340 nM.
One may read the Ki as the equilibrium dissociation constant of an inhibitor or competing ligand from its target. `CC1(C)CNC[C@](F)(C(=O)N[C@@H]2CC[C@@H](Oc3cccc(CC(=O)O)c3-c3cccc(F)c3C3CCC3)C2)C1` (atropisomer, axis not shown) [Example H12, [(1 ψ)-2′-cyclobutyl-3′-fluoro-6-{[(1R,3R)-3-{[(3ξ)-3-fluoro-5,5-dimethylpiperidine-3-carbonyl]amino}cyclopentyl]oxy}[1,1′-biphenyl]-2-yl]acetic acid] displayed an IC50 in the test with H3K9AC (HT1080 cells) (H3K9AC sandwich ELISA) of more than 1000 nM. Also, the Ki at KAT2A (setting [1]) was more than 99.9 nM.
Turning to `CC1(C)CNC[C@](F)(C(=O)N[C@@H]2CC[C@@H](Oc3cccc(CC(=O)O)c3-c3cccc(F)c3C3CCC3)C2)C1` (atropisomer, axis not shown) [Example H13, [(1 ψ)-2′-cyclobutyl-3′-fluoro-6-{[(1R,3R)-3-{[(3ξ)-3-fluoro-5,5-dimethylpiperidine-3-carbonyl]amino}cyclopentyl]oxy}[1,1′-biphenyl]-2-yl]acetic acid], the 50% inhibitory concentration (IC50) in the test on H3K9AC (HT1080 cells) (H3K9AC sandwich ELISA) stood at 9.7 nM. This counts as single-digit nanomolar.
Take `CN1CC(C)(C)C[C@H]1C(=O)N[C@@H]1CC[C@@H](Oc2cccc(C(=O)NS(C)(=O)=O)c2-c2cccc(F)c2C2CCC2)C1` (atropisomer, axis not shown) [Example I1, N-[(1R,3R)-3-({(1Ψ)-2′-cyclobutyl-3′-fluoro-6-[(methanesulfonyl)carbamoyl][1,1′-biphenyl]-2-yl}oxy)cyclopentyl]-1,4,4-trimethyl-L-prolinamide]: the IC50 with H3K9AC (HT1080 cells) (setting [2]) turned out to be 41.9 nM. For the same molecule, the Ki at KAT2A (setting [1]) is 24.5 nM.
`CN1CC(C)(C)C[C@H]1C(=O)N[C@@H]1CC[C@@H](Oc2cccc(CC(=O)NS(C)(=O)=O)c2-c2ccccc2C2CCC2)C1` (atropisomer, axis not shown) [Example I3, N-[(1R,3R)-3-{[(1ψ)-2′-cyclobutyl-6-{2-[(methanesulfonyl)amino]-2-oxoethyl}[1,1′-biphenyl]-2-yl]oxy}cyclopentyl]-1,4,4-trimethyl-L-prolinamide] showed an IC50 with H3K9AC (HT1080 cells) (H3K9AC sandwich ELISA) of more than 6680 nM. Moreover, the Ki at KAT2A (setting [1]) is 1430 nM.
With `CN1CC(C)(C)C[C@H]1C(=O)N[C@@H]1CC[C@@H](Oc2cccc(C(=O)NS(=O)(=O)N(C)C)c2-c2cccc(F)c2C2CCC2)C1` (atropisomer, axis not shown) [Example I7, N-[(1R,3R)-3-({(1ψ)-2′-cyclobutyl-6-[(dimethylsulfamoyl)carbamoyl]-3′-fluoro[1,1′-biphenyl]-2-yl}oxy)cyclopentyl]-1,4,4-trimethyl-L-prolinamide], in the test on H3K9AC (HT1080 cells) (setting [2]), the IC50 came out at 41.4 nM. For the same molecule, the Ki on KAT2A (setting [1]) is 24.4 nM.
The like results for `CN1CC2(CCCC2)C[C@@H]1C(=O)N[C@@H]1CC[C@@H](Oc2cccc(C(=O)NS(C)(=O)=O)c2-c2cccc(F)c2C2CCC2)C1` (atropisomer, axis not shown) [Example I11, (3ξ)-N-[(1R,3R)-3-({(1ψ)-2′-cyclobutyl-3′-fluoro-6-[(methanesulfonyl)carbamoyl][1,1′-biphenyl]-2-yl}oxy)cyclopentyl]-2-methyl-2-azaspiro[4.4]nonane-3-carboxamide] were, in that order, 3130 nM and 163 nM.
In the case of `CN(C)S(=O)(=O)NC(=O)Cc1cccc(O[C@@H]2CC[C@@H](NC(=O)[C@@]3(F)CNC4(CCC4)C3)C2)c1-c1cccc(F)c1C1CCC1` (atropisomer, axis not shown) [Example I15, (7S)-N-[(1R,3R)-3-({(1ψ)-2′-cyclobutyl-6-[2-(dimethylsulfamamido)-2-oxoethyl]-3′-fluoro[1,1′-biphenyl]-2-yl}oxy)cyclopentyl]-7-fluoro-5-azaspiro[3.4]octane-7-carboxamide], the IC50 in the test on H3K9AC (HT1080 cells) (H3K9AC sandwich ELISA) was more than 1000 nM. For the same molecule, the Ki at KAT2A (setting [1]) is more than 99.9 nM.
Consider `CC(C)S(=O)(=O)NC(=O)Cc1cccc(O[C@@H]2CC[C@@H](NC(=O)[C@@]3(F)CNC4(CCC4)C3)C2)c1-c1cccc(F)c1C1CCC1` (atropisomer, axis not shown) [Example I18, (7S)-N-[(1R,3R)-3-({(1ψ)-2′-cyclobutyl-3′-fluoro-6-[2-oxo-2-(propane-2-sulfonamido)ethyl][1,1′-biphenyl]-2-yl}oxy)cyclopentyl]-7-fluoro-5-azaspiro[3.4]octane-7-carboxamide], for which the IC50 in the test on H3K9AC (HT1080 cells) (H3K9AC sandwich ELISA) was more than 1000 nM. Further, the Ki at KAT2A (setting [1]) was more than 99.9 nM.
`CC(C)S(=O)(=O)NC(=O)c1cccc(O[C@@H]2CC[C@@H](NC(=O)[C@@]3(F)CNC4(CCC4)C3)C2)c1-c1cccc(F)c1C1CCC1` (atropisomer, axis not shown) [Example I19, (7S)-N-[(1R,3R)-3-({(1ψ)-2′-cyclobutyl-3′-fluoro-6-[(propane-2-sulfonyl)carbamoyl][1,1′-biphenyl]-2-yl}oxy)cyclopentyl]-7-fluoro-5-azaspiro[3.4]octane-7-carboxamide] showed an IC50 with H3K9AC (HT1080 cells) (setting [2]) of 7.1 nM. Besides, on KAT2A (setting [1]), the Ki was 13.7 nM.
Molecule `CN1CC(C)(C)C[C@H]1C(=O)N[C@H]1C[C@H](Oc2cccc(CC(=O)O)c2-c2cccc(F)c2C2CCC2)C[C@H]1O` (atropisomer, axis not shown) [Example K5, [(1ψ)-2′-cyclobutyl-3′-fluoro-6-({(1S,3R,4S)-3-hydroxy-4-[(1,4,4-trimethyl-L-prolyl)amino]cyclopentyl}oxy)[1,1′-biphenyl]-2-yl]acetic acid] came in with an IC50 in the test on H3K9AC (HT1080 cells) (H3K9AC sandwich ELISA) of 489 nM. The Ki at KAT2A (setting [1]) was 75.7 nM.
Consider `CCC1(CC)C[C@@](F)(C(=O)N[C@@H]2CC[C@@H](Oc3ccc(C(C)(C)C(=O)O)cc3-c3cccc(F)c3C3CCC3)C2)CN1` (single isomer, unassigned) [Example A30], for which the IC50 with H3K9AC (HT1080 cells) (H3K9AC sandwich ELISA) is more than 1000 nM.
Same read-out and setting: the result for `CCC1(CC)C[C@@](F)(C(=O)N[C@@H]2CC[C@@H](Oc3ccc(C(C)(C)C(=O)O)cc3-c3cccc(F)c3C3CCC3)C2)CN1` (single isomer, unassigned) [Example A31] reads 9.3 nM.
As to `CCc1c(F)cccc1-c1cc([C@@H](C)C(=O)NS(=O)(=O)C2(C)CC2)ccc1O[C@@H]1CC[C@@H](NC(=O)[C@@]2(F)CNC3(CCCC3)C2)C1` (single isomer, unassigned) [Example C84], the Ki on KAT2A (setting [1]) was more than 99.9 nM.
Still for that read-out and setting: the result for `CCc1c(F)cccc1-c1cc([C@@H](C)C(=O)NS(=O)(=O)C2(C)CC2)ccc1O[C@@H]1CC[C@@H](NC(=O)[C@@]2(F)CNC3(CCCC3)C2)C1` (single isomer, unassigned) [Example C86] reads more than 99.9 nM; that for `CN1CC2(CCCC2)C[C@H]1C(=O)N[C@@H]1CC[C@@H](Oc2ccc(C(=O)O)cc2-c2ccccc2C2CCC2)C1` (single isomer, unassigned) [Example D8], 926 nM; that for `C[C@H](C(=O)O)c1nn(C)cc1-c1ccc(O[C@@H]2CC[C@@H](NC(=O)[C@]3(F)CNC4(CCC4)C3)C2)c(-c2cccc(F)c2C2CCC2)c1` (single isomer, unassigned) [Example J3], 842 nM.
Still for that read-out and setting: as for `CCn1cc(-c2ccc(O[C@@H]3CC[C@@H](NC(=O)[C@@]4(F)CNC5(CCC5)C4)C3)c(-c3cccc(F)c3C3CCC3)c2)c(C(=O)O)n1` (single isomer, unassigned) [Example J14], the figure is 284 nM.
On KAT2A (setting [3]), `Cc1cc(NS(C)(=O)=O)n(-c2ccc(O[C@@H]3CC[C@@H](NC(=O)[C@@]4(F)CNC5(CCC5)C4)C3)c(-c3cccc(F)c3C3CCC3)c2)n1` (single isomer, unassigned) [Example L2] had a Ki of more than 99.9 nM.
Still for that read-out and setting: as for `CC(C)(C(=O)O)c1ccc(O[C@@H]2CC[C@@H](NC(=O)[C@]3(F)CNC4(CCC4)C3)C2)c(-c2cccc(F)c2C2CCC2)c1` [Example A2, 2-(2′-cyclobutyl-3′-fluoro-6-{[(1R,3R)-3-({[(7R)-7-fluoro-5-azaspiro[3.4]oct-7-yl]carbonyl}amino)cyclopentyl]oxy}biphenyl-3-yl)-2-methylpropanoic acid], the figure is 2750 nM.
